Reference: patent US20250353825A1, “CANNABICYCLOL DERIVATIVES AND PREPARATION METHODS THEREOF” (priority 2023, published 2025)

Key:
Format in all cases: cell-based
[1] = test system: U87; experiment: MTS cell viability assay, U87; conditions: Homo sapiens, U-87 MG; Table 7, 72 hours; read-out: IC50 against U87
Procedure: (§1) Primary viability screening: (1) the synthesized compounds 3a to 13d were respectively dissolved in DMSO to prepare a 40 μg/mL cannabicyclol and cannabicyclol derivative solutions.
(§2) (2) A control group: a 200 μL DMSO solvent.
(§3) (3) The solutions of compounds 3a to 13d were diluted in a twofold gradient to obtain cannabicyclol and cannabicyclol derivative solutions at concentrations of 40 μg/mL, 20 μg/mL, 10 μg/mL, 5 μg/mL, 2.5 μg/mL, 1.25 μg/mL, and 0.625 μg/mL, and 0.3125 μg/mL, respectively.
(§4) (4) Three glioblastoma stem cells (GSC-3, GSC-12, and GSC-18), three pancreatic cancer cell-derived stem cells (PANC-1-CSC, BXPC-3-CSC, and ASPC1-CSC), three liver cancer cell-derived stem cells (HepG2-CSC, MHCC97H-CSC, and SMMC7721-CSC), HEK-293T cells, 16 tumor cells (U251, U87, T98G, PANC1, BXPC3, ASPC1, HepG2, MHCC97H, SMMC7721, PC3, SKOV3, MDA-MB231, A549, HCT116, HEC-1B, MKN28), and differentiated glioblastoma stem cells (GSC-3diff and GSC-12diff) derived from GSC-3 and GSC-12 (all of the cells were provided by the Laboratory of Tumor Animal Model Preparation and Application Research, West China Hospital, Sichuan University) were inoculated into a 96-well plate at a concentration of 2×10^4 cells/well, and 100 μL of culture medium was then added to each well; […]
(§5) (10) The absorbance value at 490 nm was measured on an enzyme labeling apparatus, and the IC50 value was calculated.

[2] = test system: PC3; experiment: MTS cell viability assay, PC3; conditions: Homo sapiens, PC-3; Table 7, 72 hours; read-out: IC50 against PC3
Procedure: as §1, §2, §3, §4, §5

[3] = test system: glioblastoma cell line U251; experiment: Soft agar colony (clone) formation, U251; conditions: crystal violet, FIG. 4, compound 3a 0, 5 and 5 [sic] μg/mL
Procedure: […] of low-melting-point agarose was dissolved in 12.5 mL of ddH2O to prepare a 3.2% low-melting-point agarose gel. The low-melting-point agarose gel was sterilized by autoclaving at 121° C. and 0.12 MPa for 20 minutes. After sterilization, the low-melting-point agarose gel was maintained at 60° C. in a drying oven for further use.
1.75 mL of 3.2% sterile low-melting-point agarose gel was taken, 5.25 mL of the corresponding complete medium was added, and the two were mixed thoroughly using a pipette to prepare a base gel at a concentration of 0.8%.
1 mL of the base gel was added to each well of a 6-well plate, ensuring that the base gel evenly covered the bottom of each well. The plate was placed at 4° C. for 5 minutes to allow the gel to solidify. After the gel had fully solidified, the plate was warmed at 37° C. for 5 minutes.
6 cells/cell lines (U251, SMMC7721, GSC-3, GSC-12, SMMC7721-CSC, and HepG2-CSC) were individually digested with 1× trypsin for 3 minutes. The corresponding complete culture medium (same as in the application example 1) was added to terminate the digestion. Cells were centrifuged at 1000 rpm for 3 minutes, and the cells were collected and counted. A total of 5×10^3 cells were added to each well, each group was set up with three replicates. […]

[4] = test system: HEK-293T, GSC-3diff, GSC-12diff and 16 tumor cells; experiment: MTS cell viability assay, summary over HEK-293T, GSC-3diff, GSC-12diff and 16 tumor cells; conditions: summary of Table 7 in words
Procedure: as §1, §2, §3, §4, §5

## CCCCCc1cc(O)c2c(c1)OC1(C)CCC3C1C2C3(C)C (stereo not shown) [Compound 3a, cannabicyclol]
[1]
  IC50: > 40 µg/mL
[2]
  IC50: > 40 µg/mL
[3]
  colony formation of U251: significantly inhibited
[4]
  inhibitory effects on HEK-293T, GSC-3diff, GSC-12diff and the 16 tumor cells: no significant inhibitory effects
